Test results taken from PubChem BioAssay (NCI).
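Method: 48-hour compound exposure of cells in 96-well plates, five concentrations, linear interpolation of endpoints. The concentration for full growth arrest is given as TGI.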

How the values were obtained:
Test in all cases: NCI tumour cell line growth inhibition, 48 h
786-0 renal = test system: 786-0 renal
A549 NSCLC = test system: A549 NSCLC
CCRF-CEM leukemia = test system: CCRF-CEM leukemia
HCC-2998 colon = test system: HCC-2998 colon
HOP-62 NSCLC = test system: HOP-62 NSCLC
IGROV1 ovarian = test system: IGROV1 ovarian
K-562 leukemia = test system: K-562 leukemia
MCF7 breast = test system: MCF7 breast
MDA-MB-231 breast = test system: MDA-MB-231 breast
NCI/ADR-RES ovarian = test system: NCI/ADR-RES ovarian
SF-268 CNS = test system: SF-268 CNS
SK-MEL-28 melanoma = test system: SK-MEL-28 melanoma
SN12C renal = test system: SN12C renal
SNB-75 CNS = test system: SNB-75 CNS
SR leukemia = test system: SR leukemia
TK-10 renal = test system: TK-10 renal
U251 CNS = test system: U251 CNS
RPMI-8226 leukemia = test system: RPMI-8226 leukemia
UO-31 renal = test system: UO-31 renal

| SMILES | TGI (786-0 renal) [µM] | TGI (A549 NSCLC) [µM] | TGI (CCRF-CEM leukemia) [µM] | TGI (HCC-2998 colon) [µM] | TGI (HOP-62 NSCLC) [µM] | TGI (IGROV1 ovarian) [µM] | TGI (K-562 leukemia) [µM] | TGI (MCF7 breast) [µM] | TGI (MDA-MB-231 breast) [µM] | TGI (NCI/ADR-RES ovarian) [µM] | TGI (SF-268 CNS) [µM] | TGI (SK-MEL-28 melanoma) [µM] | TGI (SN12C renal) [µM] | TGI (SNB-75 CNS) [µM] | TGI (SR leukemia) [µM] | TGI (TK-10 renal) [µM] | TGI (U251 CNS) [µM] | TGI (RPMI-8226 leukemia) [µM] | TGI (UO-31 renal) [µM] |
| --- | --- | --- | --- | --- | --- | --- | --- | --- | --- | --- | --- | --- | --- | --- | --- | --- | --- | --- | --- |
| COc1ccc(-c2c(C(C)=O)c(-c3ccccc3)n(C3OC(COC(C)=O)C(OC(C)=O)C(OC(C)=O)C3OC(C)=O)c(=S)c2C#N)cc1 (stereo unspecified) | > 100 | > 100 | > 100 | > 100 | > 100 | > 100 | > 100 | > 100 | > 100 | > 100 | > 100 | > 100 | > 100 | > 100 | > 100 | > 100 | > 100 | – | – |
| CCOc1cc(NC(C)=O)ccc1C(=O)NN1C(=O)C(Oc2ccccc2)C1c1ccc(O)c(OC)c1 (stereo unspecified) | > 100 | > 100 | 54.5 | – | > 100 | > 100 | > 100 | > 100 | > 100 | > 100 | – | > 100 | 99.4 | > 100 | > 100 | > 100 | > 100 | 51.6 | > 100 |
| c1ccc2c(c1)nc1n2CNCC1 | > 100 | > 100 | – | > 100 | > 100 | > 100 | – | > 100 | > 100 | > 100 | > 100 | > 100 | > 100 | > 100 | > 100 | > 100 | > 100 | > 100 | > 100 |
| Cc1nnc([C@@]2(C)CC[C@H]3[C@@H](CC=C4C[C@@H](O)CC[C@@]43C)[C@@H]2CC#N)o1 | > 100 | > 100 | > 100 | – | > 100 | – | > 100 | > 100 | > 100 | > 100 | > 100 | – | > 100 | > 100 | > 100 | > 100 | > 100 | > 100 | > 100 |
| CCOC(=O)N/N=C(/N)Cc1ccccc1 | > 100 | > 100 | > 100 | > 100 | > 100 | > 100 | > 100 | > 100 | > 100 | > 100 | > 100 | > 100 | > 100 | > 100 | > 100 | > 100 | – | – | > 100 |
| CSc1nc(Cl)c2c(n1)Sc1nc3cc4c(cc3n1C2O)OCO4 (stereo unspecified) | > 39 | > 47.9 | > 100 | > 60.9 | 16.7 | > 72.2 | > 100 | > 100 | > 83.3 | 5.72 | > 100 | > 100 | 32.4 | > 100 | – | > 100 | > 50.1 | > 20.8 | > 57.8 |
| CCC1c2[nH]c3ccccc3c2C[C@H]2C(=O)NC(CCC(=O)OC(C)(C)C)C(=O)N12 (stereo partly specified) | > 100 | > 100 | – | – | > 100 | > 100 | > 100 | > 100 | > 100 | > 100 | > 100 | > 100 | > 100 | – | > 100 | > 100 | > 100 | 97.9 | > 100 |
| CC(=O)NNc1nc(C)c(C(/C=C/c2cccc([N+](=O)[O-])c2)=N/NC(=S)NN)s1 | > 100 | > 100 | > 100 | > 100 | > 100 | > 100 | > 100 | > 100 | > 100 | > 100 | > 100 | > 100 | > 100 | > 100 | – | > 100 | > 100 | > 100 | > 100 |
| CCN(CC)Cc1cc(Nc2ccnc3ccc4c(nnn4C)c23)ccc1O | 20.8 | 27 | 35.7 | 10.7 | 19 | 80.3 | 33 | 16.7 | 44.6 | 52.7 | 29.9 | 17.8 | 31.8 | 19.9 | 18.6 | 76 | – | – | 23.6 |
| S=C1Cc2c([nH]c3ccccc23)-c2ccccc2N1 | > 100 | > 100 | > 100 | – | 62.3 | > 100 | > 100 | > 100 | > 100 | > 100 | > 100 | > 100 | > 100 | 66.7 | > 100 | 52.9 | – | > 100 | 58.9 |
| O=C(CC(=O)N(C(=O)c1ccccc1)c1ccc(Cl)cc1)N/N=C\c1cc(N=Nc2ccccc2Cl)ccc1O | > 100 | > 100 | 51.4 | > 100 | > 100 | > 100 | 36 | > 100 | > 100 | – | > 100 | > 100 | > 100 | 36.6 | 35.8 | > 100 | > 100 | > 100 | > 100 |
| CC(=O)NCc1nc(C#N)c(N)o1 | > 100 | > 100 | > 100 | > 100 | > 100 | > 100 | > 100 | > 100 | > 100 | > 100 | > 100 | > 100 | > 100 | > 100 | – | > 100 | > 100 | > 100 | > 100 |
| COc1ccccc1N1C(=O)/C(=C\c2cccc(Oc3ccccc3)c2)SC1c1ccccc1 (stereo unspecified) | > 100 | > 100 | – | > 100 | > 100 | > 100 | > 100 | > 100 | > 100 | > 100 | > 100 | > 100 | > 100 | > 100 | > 100 | > 100 | > 100 | > 100 | > 100 |
| Oc1cc(O)c2c(c1)O[C@H](c1cc(O)c(O)c(O)c1)[C@H](O)C2 | 33.5 | 76.7 | 42.4 | – | 37.3 | 41.9 | 48.4 | 40.1 | 33.6 | 63.8 | 61.2 | > 100 | 37 | 98 | 27.6 | – | 30.4 | 31.7 | 39.4 |
| O=C(CCc1ccc(O)cc1)NCCc1ccc(O)cc1 | > 100 | > 100 | > 100 | > 100 | > 100 | > 100 | > 100 | > 100 | > 100 | > 100 | > 100 | > 100 | > 100 | – | > 100 | > 100 | > 100 | – | > 100 |
| Nc1ccc(C(=O)Nn2c(-c3ccccc3)nc3ccccc3c2=O)cc1 | > 100 | > 100 | > 100 | > 100 | > 100 | > 100 | > 100 | > 100 | > 100 | – | > 100 | > 100 | > 100 | > 100 | > 100 | > 100 | > 100 | > 100 | > 100 |
| S=C(/N=c1/sc(Nc2ccccc2)nc2sc3c(c12)CCCC3)Nc1ccccc1 | > 62.5 | – | > 62.5 | > 62.5 | > 62.5 | > 62.5 | > 62.5 | > 62.5 | > 62.5 | – | > 62.5 | > 62.5 | > 62.5 | – | > 62.5 | > 62.5 | > 62.5 | > 62.5 | > 62.5 |
| O=C(Nc1ccc2nc(-c3ccccc3)cn2c1)Oc1ccccc1 | > 100 | > 100 | > 100 | > 100 | > 100 | > 100 | > 100 | > 100 | > 100 | > 100 | > 100 | > 100 | > 100 | 13.1 | > 100 | > 100 | > 100 | – | > 100 |
| CCOC(=O)Cn1sc2ncc([N+](=O)[O-])cc2c1=O | 30.6 | 39.7 | 5.41 | 32.2 | 30 | 25.9 | 12.3 | 35.3 | 29.3 | 35.5 | 44.6 | 28.6 | 31.6 | 89.1 | – | 32.8 | – | > 100 | 21.8 |
| CCCN=C(NC(=O)c1ccc(Cl)cc1)SC | > 100 | > 100 | > 100 | > 100 | > 100 | > 100 | > 100 | > 100 | > 100 | > 100 | > 100 | > 100 | > 100 | 97.2 | > 100 | – | > 100 | > 100 | 46.4 |
| O=C1SCC(O)=C1/C=N/Nc1nc2ccccc2o1 | > 100 | 95.4 | 48.8 | > 100 | > 100 | – | – | > 100 | > 100 | 43.3 | > 100 | > 100 | 96 | – | > 100 | 92.8 | – | – | – |
| O=C1C(Br)=CC2(C=C1Br)CCN=c1c(O)c3c(c(O)c12)=NC=N3 | 30 | 37.9 | 48.9 | 46.3 | 31.1 | – | 41.1 | 28.5 | 29.4 | 52.9 | 28.2 | 29.9 | – | 30.5 | > 100 | 59 | 28.4 | 50.9 | 29.4 |
| Clc1ccc2c(NCCCCN=Cc3ccccc3)ccnc2c1 | 22.2 | 31.3 | > 100 | 27.8 | 23.7 | 36.5 | > 100 | 28.6 | 29 | 46.7 | 35 | 29 | 21.5 | 24.1 | – | 64 | 24.5 | > 100 | 40.3 |
| CCOC(=O)NC(Nc1ccc(S(=O)(=O)Nc2ncccn2)cc1)(C(=O)OCC)C(F)(F)F (stereo unspecified) | > 100 | > 100 | > 100 | > 100 | > 100 | > 100 | > 100 | > 100 | > 100 | > 100 | > 100 | > 100 | > 100 | > 100 | > 100 | – | > 100 | > 100 | > 100 |
| Cc1ccc2nc3ccccc3c(C3C4C(=O)N(c5ccc(Br)cc5Cl)C(=O)C4ON3C(C(N)=O)c3ccccc3)c2c1 (stereo unspecified) | > 25 | > 25 | > 25 | – | > 25 | > 25 | > 25 | > 25 | > 25 | – | > 25 | > 25 | 23.2 | > 25 | > 25 | > 25 | > 25 | – | 12.9 |
| CCOC(=O)c1c(SC(=O)/C=C/c2ccccc2)n(-c2ccccc2)c(=S)n(-c2ccccc2)c1=O | > 100 | > 100 | > 100 | > 100 | > 100 | > 100 | > 100 | > 100 | > 100 | > 100 | > 100 | > 100 | > 100 | > 100 | > 100 | > 100 | > 100 | – | – |
| CC1=C2C3=C(C)C(=O)C(C)(C)CC[C@@]3(C)[C@]2(C)CCC(C)(C)C1=O | > 100 | > 100 | > 100 | – | > 100 | > 100 | > 100 | > 100 | > 100 | > 100 | > 100 | – | > 100 | > 100 | > 100 | > 100 | > 100 | > 100 | > 100 |
